Experiments:
[1] = molecular target: truncated PI3Kα (p110α/iSH2 p85α) (Homo sapiens (Human), UniProt P42336); experiment: PI3KA_Act fluorescence polarization kinase assay (Ki); format: biochemical; conditions: 1 mM ATP
Method in brief: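 Ki values result from fitting fluorescence polarization signals to the Morrison equation for tight-binding competitive inhibitors. The detector was GST-Grp1 PH domain with TAMRA-PIP3, read after a 30 min room-temperature reaction of 0.5 nM truncated PI3Kα and 30 μM PIP2 at pH 7.4 in HEPES/NaCl/MgCl2/DTT/CHAPS buffer. Compounds were tested as 12-point 3-fold dilutions from 3 μM.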

[2] = molecular target: full-length PI3Kα (full-length p110α/p85α) (Homo sapiens (Human), UniProt P42336); experiment: PI3KA_FL fluorescence polarization kinase assay (Ki); format: biochemical; conditions: 41 μM ATP
Source text: Enzyme Production for Biochemical Assays: 1) PI3Kα Complex (Full Length p110α and p85α)(“PI3KA_FL”)
Genes encoding for full length p110α and p85α subunits of PI3Kα complex were subcloned from existing constructs into pFASTBAC Dual vector (Life Technologies, Carlsbad, Calif.) using standard cloning procedures. Gene encoding p110α subunit was subcloned into polyhedrine promoter while gene encoding p85α subunit was subcloned into p10 promoter. Additionally, sequence encoding for histidine tag and Tobacco Etch Virus (“TEV”) cleavage site preceded p110α ORF (Open Reading Frame). Recombinant baculovirus was generated using Bac-to-Bac protocol (Life Technologies, Carlsbad, Calif.) and large scale expression was conducted in Sf21 (Life Technologies, Carlsbad, Calif.) cells at a multiplicity of infection (“MOI”)=1 for 72 hours. Cells were lyzed in 50 mM Tris pH 8.0, 250 mM NaCl, 5% glycerol, 0.25 mM TCEP, and 20 mM imidazole. The PI3Kα complex was purified from clarified supernatant using Immobilized Metalo Affinity Chromatography (“IMAC”). The protein was eluted from the column using 50 mM Tris pH 8.0, 200 mM NaCl, 5% glycerol, 0.25 mM TCEP, and 200 mM imidazole, and further desalted into 50 mM Tris pH 8.0, 20 mM NaCl, and 0.25 mM TCEP prior to loading on MonoQ sepharose (GE Healthcare, Piscataway, N.J.). PI3Kα complex was eluted from MonoQ sepharose over 20 column volumes using 0-30% gradient of buffer B (50 mM Tris pH 8.0, 1 M NaCl, and 0.25 mM TCEP). The peak fractions were pulled together and loaded on Superdex 200 26/60 SEC column equilibrated in 50 mM Tris pH 8.0, 200 mM NaCl, and 0.5 mM TCEP. […] Purity and integrity of the complex was confirmed using LCMS, analytical SEC and SDS-PAGE (sodium dodecyl sulfate polyacrylamide gel electrophoresis) analysis.
The biochemical assays of kinase activity of full-length PI3Kα (full-length p110α/p85a) or truncated PI3Kα (p110α/iSH2 p85a) were conducted using a fluorescence polarization format similar to the procedure of Yuan J., et al., (2011) “PF-04691502, a Potent and Selective Oral Inhibitor of PI3K and mTOR Kinases with Antitumor Activity”, Mol Cancer Ther. 10, 2189-2199. The enzymatic reactions were conducted in 50 μL volumes in 96-well plates. The reactions contained human recombinant PI3Kα (2 nM full-length p110α/p85α or 0.5 nM p110α/iSH2 p85) and 30 μM phosphatidylinositol 4,5-bisphosphate (“PIP2”) (Cayman Chemical Company, Ann Arbor, Mich.) and were sonicated for 1 minute prior to adding PI3Kα enzyme (PI3KA_Act or PI3KA_FL), DMSO or test compound (12-point 3-fold serial dilution, 3 μM top dose, 2° A) DMSO final concentration), 5 mM MgCl2, 50 mM HEPES pH 7.4, 150 mM NaCl, 1 mM DTT ((2S,3S)-1,4-bis(sulfanyl)butane-2,3-diol), and 0.05% 3-[(3-cholamidopropyl)dimethylammonio]-1-propanesulfonate (“CHAPS”). […] The reactions were incubated for 30 min at room temperature, stopped with EDTA pH 8 (10 mM final concentration). In a detection plate, 15 μL of detector/probe mixture, containing 480 nM GST-Grp1 PH domain protein (University of Dundee, Dundee, UK) and 12 nM carboxytetramethylrhodamine (“TAMRA”)-tagged fluorescent phosphatidylinositol (3,4,5)-triphosphate (“PIP3”) (Echelon Biosciences, Inc., Salt Lake City, Utah) in assay buffer, was mixed with 15 μL of kinase reaction mixture. The plate was shaken for 30 minutes and fluorescence polarization values were measured on an LJL Analyst HT plate reader (Molecular Devices, Sunnyvale, Calif.). […] The inhibition constants (Ki) were calculated by fitting fluorescence polarization values, corresponding to initial reaction rates, to the Morrison equation (Morrison, J. F. (1969) Kinetics of the reversible inhibition of enzyme catalysed reactions by tight-binding inhibitors. Biochim. Biophys. Acta 185, 269-286) for tight-binding competitive inhibitors using non-linear regression method (GraphPad Prism, GraphPad Software, San Diego, Calif.).

Chain of full-length PI3Kα (full-length p110α/p85α) (P42336 whole entry): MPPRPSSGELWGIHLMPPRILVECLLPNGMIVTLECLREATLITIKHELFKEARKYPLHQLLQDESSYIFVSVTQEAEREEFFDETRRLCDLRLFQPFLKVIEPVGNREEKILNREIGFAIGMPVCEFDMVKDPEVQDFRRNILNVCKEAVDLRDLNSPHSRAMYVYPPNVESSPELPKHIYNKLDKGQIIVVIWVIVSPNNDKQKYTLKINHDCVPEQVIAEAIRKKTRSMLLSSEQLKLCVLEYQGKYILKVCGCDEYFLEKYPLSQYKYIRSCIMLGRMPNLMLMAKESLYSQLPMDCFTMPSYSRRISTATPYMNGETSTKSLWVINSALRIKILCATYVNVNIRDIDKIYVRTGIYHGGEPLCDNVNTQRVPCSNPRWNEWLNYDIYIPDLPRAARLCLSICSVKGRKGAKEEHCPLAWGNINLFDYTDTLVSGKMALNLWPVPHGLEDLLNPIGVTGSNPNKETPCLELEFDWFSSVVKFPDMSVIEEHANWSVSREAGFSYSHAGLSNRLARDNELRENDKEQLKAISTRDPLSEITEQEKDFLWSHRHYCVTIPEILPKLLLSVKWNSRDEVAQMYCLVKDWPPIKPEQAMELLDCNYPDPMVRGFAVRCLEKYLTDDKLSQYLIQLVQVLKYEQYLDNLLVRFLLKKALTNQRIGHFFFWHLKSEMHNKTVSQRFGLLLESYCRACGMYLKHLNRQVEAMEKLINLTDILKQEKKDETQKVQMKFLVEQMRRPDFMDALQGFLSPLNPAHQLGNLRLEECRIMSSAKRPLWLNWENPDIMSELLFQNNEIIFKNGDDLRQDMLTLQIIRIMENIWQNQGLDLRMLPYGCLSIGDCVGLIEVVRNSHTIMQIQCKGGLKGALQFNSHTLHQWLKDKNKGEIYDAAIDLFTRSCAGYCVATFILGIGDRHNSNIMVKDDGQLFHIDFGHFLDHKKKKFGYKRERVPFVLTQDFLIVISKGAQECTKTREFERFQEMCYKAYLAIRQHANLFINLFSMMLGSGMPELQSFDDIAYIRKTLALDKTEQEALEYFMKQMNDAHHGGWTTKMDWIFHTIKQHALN
Chain of full-length PI3Kα (full-length p110α/p85α) (P27986 whole entry partner): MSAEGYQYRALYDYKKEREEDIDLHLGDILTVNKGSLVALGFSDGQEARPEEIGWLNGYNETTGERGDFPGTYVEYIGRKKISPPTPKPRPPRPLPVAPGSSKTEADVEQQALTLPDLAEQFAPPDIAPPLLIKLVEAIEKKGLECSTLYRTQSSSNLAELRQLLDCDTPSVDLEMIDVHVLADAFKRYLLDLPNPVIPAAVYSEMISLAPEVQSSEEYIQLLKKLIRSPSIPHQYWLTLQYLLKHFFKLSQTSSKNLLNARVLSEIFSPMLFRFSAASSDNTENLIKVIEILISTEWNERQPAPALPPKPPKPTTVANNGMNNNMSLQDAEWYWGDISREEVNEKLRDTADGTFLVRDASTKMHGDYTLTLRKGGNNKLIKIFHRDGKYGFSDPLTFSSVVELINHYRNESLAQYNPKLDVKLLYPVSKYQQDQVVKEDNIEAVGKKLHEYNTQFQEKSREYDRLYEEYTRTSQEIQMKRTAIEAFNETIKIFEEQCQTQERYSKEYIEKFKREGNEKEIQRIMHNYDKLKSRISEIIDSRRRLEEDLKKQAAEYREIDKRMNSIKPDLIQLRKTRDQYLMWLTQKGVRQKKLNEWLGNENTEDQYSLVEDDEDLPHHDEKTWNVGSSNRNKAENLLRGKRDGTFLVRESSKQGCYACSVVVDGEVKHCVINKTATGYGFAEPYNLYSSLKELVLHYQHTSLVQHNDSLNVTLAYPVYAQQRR
Chain of truncated PI3Kα (p110α/iSH2 p85α) (P42336 whole entry, the tested form may be a part): as the sequence (P42336 whole entry) above

| SMILES | PI3KA_Act Ki [1] [nM] | PI3KA_FL Ki (nM) [2] | PI3KA_FL Ki [2] [nM] |
| --- | --- | --- | --- |
| C[C@H]1COCCN1c1nc(-c2cnc(N)nc2)c2c(n1)N([C@H]1CCN(S(C)(=O)=O)C1)CC2 [Example 79] | 0.257 | ≦0.229 nM | – |
| CNS(=O)(=O)N1CC[C@H](N2CCc3c(-c4cnc(N)nc4)nc(N4CCOCC4)nc32)C1 [Example 38] | 0.124 | – | 0.228 |
| C[C@H]1COCCN1c1nc(-c2cnc(N)nc2)c2c(n1)N(C1CN(S(N)(=O)=O)C1)CC2 [Example 126] | 0.219 | ≦0.229 nM | – |
| CS(=O)(=O)N1CCC[C@@H](N2CCc3c(-c4cnc(N)nc4)nc(N4CCOCC4)nc32)C1 [Example 93] | 0.603 | – | 0.506 |
| CNS(=O)(=O)O[C@H]1C[C@@H](N2CCc3c(-c4cnc(N)nc4)nc(N4CCOCC4)nc32)C1 [Example 104] | 0.079 | ≦0.229 nM | – |
| CCS(=O)(=O)N1CC[C@H](N2CCc3c(-c4cnc(N)nc4)nc(N4CCOC[C@@H]4C)nc32)C1 [Example 119] | 0.059 | ≦0.229 nM | – |
| CC(=O)N1CC(OC(=O)N2CC[C@@H](N3CCc4c(-c5cnc(N)nc5)nc(N5CCOC[C@@H]5C)nc43)C2)C1 [Example 136] | 0.099 | ≦0.229 nM | – |
| CC(C)S(=O)(=O)N1CC(N2CCc3c(-c4cnc(N)nc4)nc(N4CCOC[C@@H]4C)nc32)C1 [Example 1, 5-{2-[(3S)-3-methylmorpholin-4-yl]-7-[1-(propan-2-ylsulfonyl)azetidin-3-yl]-6,7-dihydro-5H-pyrrolo[2,3-d]pyrimidin-4-yl}pyrimidin-2-amine] | 0.102 | ≦0.229 nM | – |
| CC(C)S(=O)(=O)N1CC[C@H](N2CCc3c(-c4cnc(N)nc4)nc(N4CCOCC4)nc32)C1 [Example 106] | 0.064 | ≦0.229 nM | – |
| C[C@H]1COCCN1c1nc(-c2cnc(N)nc2)c2c(n1)N([C@H]1CCN(C(=O)OC(C)(C)C)C1)CC2 [Example 76] | 0.182 | – | 0.359 |
| CNS(=O)(=O)N1CC(N2CCc3c(-c4cnc(N)nc4)nc(N4CCOC[C@@H]4C)nc32)C1 [Example 122] | 0.064 | ≦0.229 nM | – |
| CNS(=O)(=O)N1CC[C@@H](N2CCc3c(-c4cnc(N)nc4)nc(N4CCOC[C@@H]4C)nc32)C1 [Example 92] | 0.376 | – | 0.475 |
| COC(=O)N1CC[C@H](N2CCc3c(-c4cnc(N)nc4)nc(N4CCOC[C@@H]4C)nc32)C1 [Example 123] | 0.069 | ≦0.229 nM | – |
| CNS(=O)(=O)N1CC[C@@H](N2CCc3c(-c4cnc(N)nc4)nc(N4CCOC[C@@H]4C)nc32)C1 [Example 85] | 0.239 | – | 0.283 |
| Nc1ncc(-c2nc(N3CCOCC3)nc3c2CCN3C2CN(S(=O)(=O)C3CC3)C2)cn1 [Example 109] | 0.118 | ≦0.229 nM | – |
| C[C@H]1COCCN1c1nc(-c2cnc(N)nc2)c2c(n1)N(C1CN(S(=O)(=O)C3CC3)C1)CC2 [Example 118] | 0.030 | ≦0.229 nM | – |
| CC1(N2CCc3c(-c4cnc(N)nc4)nc(N4CCOCC4)nc32)CCN(S(C)(=O)=O)C1 (racemic) [Example 146] | 0.015 | ≦0.229 nM | – |
| CS(=O)(=O)N1CC(N2CCc3c(-c4cnc(N)nc4)nc(N4CCOCC4)nc32)C1 [Example 73] | 0.303 | – | 0.350 |
| CS(=O)(=O)N1CC[C@H](N2CCc3c(-c4cnc(N)nc4)nc(N4CCOCC4)nc32)C1 [Example 20] | 0.153 | ≦0.229 nM | – |
| CC(=O)N1CCC[C@@H](N2CCc3c(-c4cnc(N)nc4)nc(N4CCOCC4)nc32)C1 [Example 55] | – | – | 3.904 |

| SMILES | PI3KA_Act Ki [1] [nM] | PI3KA_FL Ki (nM) [2] | PI3KA_FL Ki [2] [nM] |
| --- | --- | --- | --- |
| C[C@H]1COCCN1c1nc(-c2cnc(N)nc2)c2c(n1)N([C@H]1CCC(F)(F)C1)CC2 (single isomer, unassigned) [Example 89] | – | – | 1.247 |
| CC(=O)N1CC[C@H](N2CCc3c(-c4cnc(N)nc4)nc(N4CCOCC4)nc32)C1 [Example 12] | – | – | 1.130 |
| C[C@H]1COCCN1c1nc(-c2cnc(N)nc2)c2c(n1)N([C@@H]1CCN(S(C)(=O)=O)C1)CC2 [Example 83] | – | – | 0.761 |
| CC(=O)N1C[C@@H](N2CCc3c(-c4cnc(N)nc4)nc(N4CCOCC4)nc32)[C@@H](C)C1 [Example 52] | – | – | 2.799 |
| CC(C)OC(=O)N1CC[C@H](N2CCc3c(-c4cnc(N)nc4)nc(N4CCOC[C@@H]4C)nc32)C1 [Example 124] | – | – | 0.333 |
| CC(C)N1CCc2c(-c3cnc(N)nc3)nc(N3CCOCC3)nc21 [Example 134] | – | – | 3.883 |
| CS(=O)(=O)N[C@H]1C[C@@H](N2CCc3c(-c4cnc(N)nc4)nc(N4CCOCC4)nc32)C1 [Example 107] | – | – | 1.388 |
| NC(=O)N1CC(N2CCc3c(-c4cnc(N)nc4)nc(N4CCOCC4)nc32)C1 [Example 86] | – | – | 3.673 |
| Nc1ncc(-c2nc(N3CCOCC3)nc3c2CCN3[C@H]2C[C@H](F)C2)cn1 [Example 65] | – | ≦0.229 nM | – |
| NC(=O)N1CC[C@H](N2CCc3c(-c4cnc(N)nc4)nc(N4CCOCC4)nc32)C1 [Example 58] | – | – | 0.794 |
| CC(=O)N1CC(N2CCc3c(-c4cnc(N)nc4)nc(N4CCOCC4)nc32)C1 [Example 33] | – | – | 5.195 |
| CN([C@H]1C[C@H](N2CCc3c(-c4cnc(N)nc4)nc(N4CCOCC4)nc32)C1)S(C)(=O)=O [Example 22] | – | ≦0.229 nM | – |
| CC(C)[C@H](O)C(=O)N1CC[C@H](N2CCc3c(-c4cnc(N)nc4)nc(N4CCOCC4)nc32)C1 [Example 32] | – | – | 0.841 |
| CNS(=O)(=O)N1CCC[C@H](N2CCc3c(-c4cnc(N)nc4)nc(N4CCOCC4)nc32)C1 [Example 91] | – | – | 1.472 |
| CC(=O)N[C@H]1C(C)(C)[C@@H](N2CCc3c(-c4cnc(N)nc4)nc(N4CCOCC4)nc32)C1(C)C [Example 42] | – | – | 7.677 |
| CC(=O)N1CCC[C@H](N2CCc3c(-c4cnc(N)nc4)nc(N4CCOCC4)nc32)C1 [Example 54] | – | – | 8.634 |
| Nc1ncc(-c2nc(N3CCOCC3)nc3c2CCN3[C@H]2CCN(S(N)(=O)=O)C2)cn1 [Example 26] | – | – | 0.423 |
| Nc1ncc(-c2nc(N3CCOCC3)nc3c2CCN3[C@H]2CCN(C=O)C2)cn1 [Example 43] | – | – | 1.310 |
| Nc1ncc(-c2nc(N3CCOCC3)nc3c2CCN3C2CCC(F)(F)C2)cn1 (racemic) [Example 19] | – | – | 0.528 |
| C[C@H](O)C(=O)N1CC[C@H](N2CCc3c(-c4cnc(N)nc4)nc(N4CCOCC4)nc32)C1 [Example 30] | – | – | 1.188 |

From US9260439B2, “Dihydropyrrolopyrimidine derivatives” (PFIZER INC., priority 2014, dated 2016)
